The target of assay [1] is intracellular phosphorylation of EGFR (Tyr1068) in PC-9 cells (Ex19Del) (Homo sapiens, UniProt P00533, DEL746-750). Kind of assay: PC-9 pEGFR AlphaLISA assay. Conditions: 4 hours compound incubation, read-out: Ext pEGFR_PC-9 Ex19Del IC50. The assay is classed as cell-based. (In general: Bead proximity is the source of the signal in Alpha formats.)
Another assay deals with T1, EGFR L858R (Homo sapiens, UniProt P00533, L858R).
T1 construct: purchased SignalChem E10-122BG
Kind of assay: Biochemical EGFR inhibition assay (Caliper mobility shift), EGFR L858R. Conditions: read-out: Enz EGFR_L858R IC50.

The target of a further assay is T2, EGFR (d746-750) (Homo sapiens, UniProt P00533, DEL746-750).
T2 construct: purchased SignalChem E10-122JG
Kind of assay: Biochemical EGFR inhibition assay (Caliper mobility shift), EGFR (d746-750). As to conditions: read-out: Enz EGFR_Exon19-del746-750 IC50.

[2] abbreviates: 1.0 mM ATP or ATP Km, room temperature (25° C.).

Where two headings read alike, the source gives them in different places.

T1 sequence (P00533 25-1210 L858R): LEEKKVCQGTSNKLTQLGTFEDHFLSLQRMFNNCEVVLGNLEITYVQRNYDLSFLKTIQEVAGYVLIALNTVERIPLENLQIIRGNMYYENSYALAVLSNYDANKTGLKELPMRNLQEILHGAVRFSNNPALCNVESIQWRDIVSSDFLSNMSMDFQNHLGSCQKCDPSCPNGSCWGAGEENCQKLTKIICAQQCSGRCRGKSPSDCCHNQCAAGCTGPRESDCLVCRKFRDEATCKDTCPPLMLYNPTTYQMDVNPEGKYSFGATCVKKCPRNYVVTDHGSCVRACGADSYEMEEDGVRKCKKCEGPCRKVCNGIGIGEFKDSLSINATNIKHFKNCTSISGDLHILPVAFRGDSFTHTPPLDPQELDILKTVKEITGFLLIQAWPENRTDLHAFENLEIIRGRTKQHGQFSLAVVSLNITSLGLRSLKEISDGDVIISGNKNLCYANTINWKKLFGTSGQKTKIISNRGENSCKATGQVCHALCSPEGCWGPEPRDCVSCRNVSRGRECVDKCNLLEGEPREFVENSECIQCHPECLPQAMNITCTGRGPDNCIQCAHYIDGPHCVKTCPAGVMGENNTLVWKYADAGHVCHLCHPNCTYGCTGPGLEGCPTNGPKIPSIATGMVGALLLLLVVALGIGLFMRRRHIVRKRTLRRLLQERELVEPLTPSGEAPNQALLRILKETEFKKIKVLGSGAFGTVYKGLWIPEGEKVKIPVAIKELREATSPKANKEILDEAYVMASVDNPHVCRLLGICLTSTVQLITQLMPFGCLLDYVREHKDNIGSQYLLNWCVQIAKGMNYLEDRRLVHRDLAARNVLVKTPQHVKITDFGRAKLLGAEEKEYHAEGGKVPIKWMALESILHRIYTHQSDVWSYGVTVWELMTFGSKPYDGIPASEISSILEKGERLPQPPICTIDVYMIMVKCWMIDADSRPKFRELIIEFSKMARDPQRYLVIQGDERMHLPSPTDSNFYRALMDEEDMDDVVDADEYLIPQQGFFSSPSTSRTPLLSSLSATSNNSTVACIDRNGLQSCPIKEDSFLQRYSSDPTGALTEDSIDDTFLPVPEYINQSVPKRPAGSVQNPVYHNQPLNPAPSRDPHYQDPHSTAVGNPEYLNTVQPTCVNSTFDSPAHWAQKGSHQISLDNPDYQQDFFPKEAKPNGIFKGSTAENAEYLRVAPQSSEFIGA
T2 sequence (P00533 with tags, fused parts or gaps DEL746-750 limits assumed): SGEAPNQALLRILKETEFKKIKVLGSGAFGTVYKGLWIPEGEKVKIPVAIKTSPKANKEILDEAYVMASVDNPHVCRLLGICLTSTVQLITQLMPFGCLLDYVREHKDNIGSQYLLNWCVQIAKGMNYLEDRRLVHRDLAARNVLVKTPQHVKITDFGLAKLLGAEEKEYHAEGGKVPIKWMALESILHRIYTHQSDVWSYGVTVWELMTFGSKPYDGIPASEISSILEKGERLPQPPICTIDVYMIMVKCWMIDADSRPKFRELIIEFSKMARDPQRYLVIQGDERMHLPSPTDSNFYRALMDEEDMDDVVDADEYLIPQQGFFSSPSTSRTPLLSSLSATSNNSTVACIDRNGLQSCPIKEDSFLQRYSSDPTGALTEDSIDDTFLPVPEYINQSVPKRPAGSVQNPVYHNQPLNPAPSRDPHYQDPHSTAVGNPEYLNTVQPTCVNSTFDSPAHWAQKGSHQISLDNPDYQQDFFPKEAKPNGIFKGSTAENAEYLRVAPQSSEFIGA
intracellular phosphorylation of EGFR (Tyr1068) in PC-9 cells (Ex19Del), sequence (P00533 with tags, fused parts or gaps DEL746-750): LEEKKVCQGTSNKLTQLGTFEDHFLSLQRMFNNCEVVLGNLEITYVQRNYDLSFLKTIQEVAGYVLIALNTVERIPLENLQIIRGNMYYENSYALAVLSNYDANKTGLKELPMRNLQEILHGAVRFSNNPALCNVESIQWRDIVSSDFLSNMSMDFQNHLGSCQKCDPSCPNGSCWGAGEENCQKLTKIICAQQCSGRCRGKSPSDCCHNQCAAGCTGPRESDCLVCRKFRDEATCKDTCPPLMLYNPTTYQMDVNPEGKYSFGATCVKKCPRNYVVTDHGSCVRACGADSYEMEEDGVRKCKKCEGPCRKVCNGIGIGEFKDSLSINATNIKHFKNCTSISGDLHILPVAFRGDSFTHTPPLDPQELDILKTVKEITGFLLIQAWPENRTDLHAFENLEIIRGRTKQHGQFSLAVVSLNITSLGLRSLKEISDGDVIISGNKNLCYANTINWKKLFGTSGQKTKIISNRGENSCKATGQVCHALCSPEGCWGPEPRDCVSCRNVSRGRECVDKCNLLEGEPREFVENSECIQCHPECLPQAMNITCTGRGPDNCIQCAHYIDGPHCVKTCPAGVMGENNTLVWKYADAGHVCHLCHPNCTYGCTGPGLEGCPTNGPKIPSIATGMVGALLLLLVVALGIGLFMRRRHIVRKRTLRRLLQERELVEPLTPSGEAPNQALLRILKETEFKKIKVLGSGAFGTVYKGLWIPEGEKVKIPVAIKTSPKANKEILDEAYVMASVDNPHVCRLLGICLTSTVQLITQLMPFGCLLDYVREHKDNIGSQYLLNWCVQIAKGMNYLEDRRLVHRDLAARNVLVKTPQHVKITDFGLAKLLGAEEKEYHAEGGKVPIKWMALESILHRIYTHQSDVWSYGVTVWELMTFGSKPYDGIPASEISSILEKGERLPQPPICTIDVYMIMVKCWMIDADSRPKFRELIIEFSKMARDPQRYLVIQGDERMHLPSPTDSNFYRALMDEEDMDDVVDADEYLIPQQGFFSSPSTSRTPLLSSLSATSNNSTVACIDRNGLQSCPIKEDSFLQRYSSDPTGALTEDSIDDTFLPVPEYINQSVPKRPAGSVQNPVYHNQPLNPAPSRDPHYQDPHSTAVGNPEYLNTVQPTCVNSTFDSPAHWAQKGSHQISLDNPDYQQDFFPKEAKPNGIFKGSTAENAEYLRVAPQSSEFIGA

A word on the IC50: it is the concentration at which inhibition is half-maximal. As to `C[C@H](CN(C)C)Oc1cc(-c2cnn(C)c2)cc2ncnc(Nc3ccc4ncccc4c3)c12` (single isomer, unassigned) [Example 43, (R)-5-((1-(dimethylamino)propan-2-yl)oxy)-7-(1-methyl-1H-pyrazol-4-yl)-N-(quinolin-6-yl)quinazolin-4-amine or (S)-5-((1-(dimethylamino)propan-2-yl)oxy)-7-(1-methyl-1H-pyrazol-4-yl)-N-(quinolin-6-yl)quinazolin-4-amine], the values for the IC50 (in assay [1]; at EGFR L858R (setting [2]); on EGFR (d746-750) (setting [2])) were over 0.0501 µM, over 0.0501 µM and 0.0101 to 0.05 µM, respectively.
Consider `C[C@H](Oc1cc(-c2cnn(C)c2)cc2ncnc(Nc3ccc4ncccc4c3F)c12)C(=O)N1CCOCC1` (single isomer, unassigned) [Example 139, (S)-2-((4-((5-fluoroquinolin-6-yl)amino)-7-(1-methyl-1H-pyrazol-4-yl)quinazolin-5-yl)oxy)-1-morpholinopropan-1-one or (R)-2-((4-((5-fluoroquinolin-6-yl)amino)-7-(1-methyl-1H-pyrazol-4-yl)quinazolin-5-yl)oxy)-1-morpholinopropan-1-one], for which the IC50 in assay [1] is at most 0.01 µM; on EGFR L858R (setting [2]), under 0.01 µM; at EGFR (d746-750) (setting [2]), under 0.01 µM.
Regarding `CO[C@H]1CCN(c2cc(O[C@H](C)CN(C)C)c3c(Nc4ccc5ncccc5c4F)ncnc3c2)C1` (single isomer, unassigned) [Example 87b, 5-(((R)-1-(dimethylamino)propan-2-yl)oxy)-N-(5-fluoroquinolin-6-yl)-7-((S)-3-methoxypyrrolidin-1-yl)quinazolin-4-amine or 5-(((R)-1-(dimethylamino)propan-2-yl)oxy)-N-(5-fluoroquinolin-6-yl)-7-((R)-3-methoxypyrrolidin-1-yl)quinazolin-4-amine], the IC50 was at most 0.01 µM in assay [1], under 0.01 µM at EGFR L858R (setting [2]) and under 0.01 µM at EGFR (d746-750) (setting [2]).
Regarding `C[C@H](Oc1cc(-c2cnn(C)c2)cc2ncnc(Nc3ccc4ncccc4c3F)c12)[C@@H]1CCCN1C` (single isomer, unassigned) [Example 146], the IC50 was at most 0.01 µM in assay [1], under 0.01 µM on EGFR L858R (setting [2]) and under 0.01 µM at EGFR (d746-750) (setting [2]).
Take `CO[C@H]1CCN(c2cc(O[C@H](C)C3COC3)c3c(Nc4ccc5ncccc5c4F)ncnc3c2)C1` (single isomer, unassigned) [Example 85b, N-(5-fluoroquinolin-6-yl)-7-((S)-3-methoxypyrrolidin-1-yl)-5-((R)-1-(oxetan-3-yl)ethoxy)quinazolin-4-amine or N-(5-fluoroquinolin-6-yl)-7-((R)-3-methoxypyrrolidin-1-yl)-5-((R)-1-(oxetan-3-yl)ethoxy)quinazolin-4-amine]: the figures for the IC50 (in assay [1]; on EGFR L858R (setting [2]); on EGFR (d746-750) (setting [2])) were at most 0.01 µM, under 0.01 µM and under 0.01 µM, respectively.
For the compound `C[C@@H](CN(C)C)Oc1cc(N2CC3CC(C2)O3)cc2ncnc(Nc3ccc4ncccc4c3)c12` (single isomer, unassigned) [Example 68, 7-(6-oxa-3-azabicyclo[3.1.1]heptan-3-yl)-5-(((S)-1-(dimethylamino)propan-2-yl)oxy)-N-(quinolin-6-yl)quinazolin-4-amine or 7-(6-oxa-3-azabicyclo[3.1.1]heptan-3-yl)-5-(((R)-1-(dimethylamino)propan-2-yl)oxy)-N-(quinolin-6-yl)quinazolin-4-amine], the IC50 in assay [1] was at most 0.01 µM; at EGFR L858R (setting [2]), 0.0101 to 0.05 µM; on EGFR (d746-750) (setting [2]), under 0.01 µM.
On to `C[C@H](CN(C)C)Oc1cc(-c2cnn(CC(F)F)c2)cc2ncnc(Nc3ccc4ncccc4c3F)c12` [Example 55, (R)-7-(1-(2,2-difluoroethyl)-1H-pyrazol-4-yl)-5-((1-(dimethylamino)propan-2-yl)oxy)-N-(5-fluoroquinolin-6-yl)quinazolin-4-amine], for which the IC50 in assay [1] is at most 0.01 µM; on EGFR L858R, under 0.01 µM; on EGFR (d746-750), under 0.01 µM.
Take `CN(C)C[C@H](Oc1cc(-c2cnn(C)c2)cc2ncnc(Nc3ccc4ncccc4c3F)c12)C(F)F` (single isomer, unassigned) [Example 37, (S)-5-((3-(dimethylamino)-1,1-difluoropropan-2-yl)oxy)-N-(5-fluoroquinolin-6-yl)-7-(1-methyl-1H-pyrazol-4-yl)quinazolin-4-amine or (R)-5-((3-(dimethylamino)-1,1-difluoropropan-2-yl)oxy)-N-(5-fluoroquinolin-6-yl)-7-(1-methyl-1H-pyrazol-4-yl)quinazolin-4-amine]: the IC50 was at most 0.01 µM in assay [1], under 0.01 µM at EGFR L858R (setting [2]) and under 0.01 µM on EGFR (d746-750) (setting [2]).
Take `C[C@@H](Oc1cc(-c2cnn([C@@H](C)CO)c2)cc2ncnc(Nc3ccc4ncccc4c3F)c12)C1COC1` (single isomer, unassigned) [Example 121, (S)-2-(4-(4-((5-fluoroquinolin-6-yl)amino)-5-((R)-1-(oxetan-3-yl)ethoxy)quinazolin-7-yl)-1H-pyrazol-1-yl)propan-1-ol or (R)-2-(4-(4-((5-fluoroquinolin-6-yl)amino)-5-((R)-1-(oxetan-3-yl)ethoxy)quinazolin-7-yl)-1H-pyrazol-1-yl)propan-1-ol]: the IC50 is at most 0.01 µM in assay [1], under 0.01 µM at EGFR L858R (setting [2]) and under 0.01 µM at EGFR (d746-750) (setting [2]).
For `C[C@H](CN(C)C)Oc1cc(N(C)C)cc2ncnc(Nc3ccc4ncccc4c3F)c12` [Example 153, (R)-5-((1-(dimethylamino)propan-2-yl)oxy)-N4-(5-fluoroquinolin-6-yl)-N7,N7-dimethylquinazoline-4,7-diamine], the concentration for half-maximal inhibition (IC50) was at most 0.01 µM in assay [1], 0.0101 to 0.05 µM on EGFR L858R and under 0.01 µM on EGFR (d746-750).
On the same counts, the results for `CN1CCC[C@@H](Oc2cc(-c3cnn(C)c3)cc3ncnc(Nc4ccc5ncccc5c4F)c23)C1` [Example 36, (R)—N-(5-fluoroquinolin-6-yl)-7-(1-methyl-1H-pyrazol-4-yl)-5-((1-methylpiperidin-3-yl)oxy)quinazolin-4-amine] are 0.0101 to 0.05 µM, 0.0101 to 0.05 µM and under 0.01 µM.
Turning to `C[C@@H](Oc1cc(-c2cnn(C)c2)cc2ncnc(Nc3ccc4ncccc4c3F)c12)[C@@H]1COCCN1` (single isomer, unassigned) [Example 124], the IC50 in assay [1] is 0.0101 to 0.05 µM; on EGFR L858R (setting [2]), under 0.01 µM; at EGFR (d746-750) (setting [2]), under 0.01 µM.
`C[C@H](CN(C)C)Oc1cc(-n2cc(F)cn2)cc2ncnc(Nc3ccc4ncccc4c3F)c12` [Example 82, (R)-5-((1-(dimethylamino)propan-2-yl)oxy)-7-(4-fluoro-1H-pyrazol-1-yl)-N-(5-fluoroquinolin-6-yl)quinazolin-4-amine]: the IC50 is at most 0.01 µM in assay [1], under 0.01 µM on EGFR L858R and under 0.01 µM on EGFR (d746-750).
For `COc1cc(O[C@H](C)CN(C)C)c2c(Nc3ccc4ncccc4c3F)ncnc2c1` [Example 57, (R)-5-((1-(dimethylamino)propan-2-yl)oxy)-N-(5-fluoroquinolin-6-yl)-7-methoxyquinazolin-4-amine], the values for the IC50 (in assay [1]; on EGFR L858R; at EGFR (d746-750)) were 0.0101 to 0.05 µM, 0.0101 to 0.05 µM and under 0.01 µM, respectively.
As to `C[C@@H](Oc1cc(-c2cnn(C)c2)cc2ncnc(Nc3ccc4ncccc4c3F)c12)C1COC1` [Example 46, (R)—N-(5-fluoroquinolin-6-yl)-7-(1-methyl-1H-pyrazol-4-yl)-5-(1-(oxetan-3-yl)ethoxy)quinazolin-4-amine], the IC50 is at most 0.01 µM in assay [1], under 0.01 µM at EGFR L858R and under 0.01 µM at EGFR (d746-750).
Consider `C[C@@H](Oc1cc(-c2cnn(C)c2)cc2ncnc(Nc3ccc4ncccc4c3F)c12)C(CO)CO` [Example 111, (R)-2-(1-((4-((5-fluoroquinolin-6-yl)amino)-7-(1-methyl-1H-pyrazol-4-yl)quinazolin-5-yl)oxy)ethyl)propane-1,3-diol], for which the IC50 in assay [1] is at most 0.01 µM; on EGFR L858R, under 0.01 µM; on EGFR (d746-750), under 0.01 µM.
`C[C@H](CN(C)C)Oc1cc(N2CCOC[C@@H]2CO)cc2ncnc(Nc3ccc4ncccc4c3F)c12` [Example 92, ((S)-4-(5-(((R)-1-(dimethylamino)propan-2-yl)oxy)-4-((5-fluoroquinolin-6-yl)amino)quinazolin-7-yl)morpholin-3-yl)methanol]: the IC50 was 0.0101 to 0.05 µM in assay [1], 0.0101 to 0.05 µM on EGFR L858R and under 0.01 µM at EGFR (d746-750).
On to `C[C@H](CN(C)C)Oc1cc(N2CCO[C@@H](C(F)F)C2)cc2ncnc(Nc3ccc4ncccc4c3F)c12` (single isomer, unassigned) [Example 99b, 7-((R)-2-(difluoromethyl)morpholino)-5-(((R)-1-(dimethylamino)propan-2-yl)oxy)-N-(5-fluoroquinolin-6-yl)quinazolin-4-amine or 7-((S)-2-(difluoromethyl)morpholino)-5-(((R)-1-(dimethylamino)propan-2-yl)oxy)-N-(5-fluoroquinolin-6-yl)], for which the half-maximal inhibitory concentration (IC50) in assay [1] was 0.0101 to 0.05 µM; at EGFR L858R (setting [2]), 0.0101 to 0.05 µM; at EGFR (d746-750) (setting [2]) it was under 0.01 µM.
Regarding `C[C@H](CN(C)C)Oc1cc(-c2cnn(C)c2)cc2ncnc(Nc3cc(O)c4ncccc4c3F)c12` [Example 122, (R)-6-((5-((1-(dimethylamino)propan-2-yl)oxy)-7-(1-methyl-1H-pyrazol-4-yl)quinazolin-4-yl)amino)-5-fluoroquinolin-8-ol], the IC50 in assay [1] was at most 0.01 µM; on EGFR L858R, under 0.01 µM; at EGFR (d746-750), under 0.01 µM.
With `C[C@H](CN(C)C)Oc1cc(N2CC3(CCS3(=O)=O)C2)cc2ncnc(Nc3ccc4ncccc4c3F)c12` [Example 97, (R)-6-(5-((1-(dimethylamino)propan-2-yl)oxy)-4-((5-fluoroquinolin-6-yl)amino)quinazolin-7-yl)-1-thia-6-azaspiro[3.3]heptane 1,1-dioxide], the IC50 in assay [1] is at most 0.01 µM; on EGFR L858R it was under 0.01 µM; at EGFR (d746-750), under 0.01 µM.

These data come from US12662465B2, “EGFR inhibitors” (Blueprint Medicines Corporation, priority 2021, dated 2026).
